# Calls of active or inactive are those of the source. No cut-off for these calls is given here.
# Assays:
# [1] = molecular target: Serine-protein kinase ATM (Homo sapiens, UniProt Q13315); assay: Inhibition of ATM derived from human HeLa cell nuclear extract using glutathione S-transferase p53N66 as substrate preincubated for 10 mins followed by ATP addition and subsequent incubation for 1 hr measured after 1.5 hrs by ELISA
# Homo sapiens [2] = species on record: Homo sapiens; assay: Selectivity ratio of IC50 for DNA-PK derived from human HeLa cells to IC50 for ATM derived from human HeLa cell nuclear extract
# Homo sapiens [3] = species on record: Homo sapiens; assay: Selectivity ratio of IC50 for mTOR derived from human HeLa cells to IC50 for ATM derived from human HeLa cell nuclear extract
# Homo sapiens [4] = species on record: Homo sapiens; assay: Selectivity ratio of IC50 for PI3K derived from human HeLa cells to IC50 for ATM derived from human HeLa cell nuclear extract
# Homo sapiens [5] = species on record: Homo sapiens; assay: Selectivity ratio of IC50 for ATR derived from human HeLa cell cytoplasmic extract to IC50 for ATM derived from human HeLa cell nuclear extract
# [6] = Solubility of the compound in phosphate buffer at pH 6.5; format: physicochemical
# [7] = Apparent permeability across apical to basolateral side in human Caco2 cells; format: ADME, cell-based; details: Caco-2
# Cytochrome P450 1A2 = molecular target: T1, Cytochrome P450 1A2 (Homo sapiens, UniProt P05177); assay: Inhibition of human CYP1A2; format: ADME
# T1 sequence (P05177 whole entry): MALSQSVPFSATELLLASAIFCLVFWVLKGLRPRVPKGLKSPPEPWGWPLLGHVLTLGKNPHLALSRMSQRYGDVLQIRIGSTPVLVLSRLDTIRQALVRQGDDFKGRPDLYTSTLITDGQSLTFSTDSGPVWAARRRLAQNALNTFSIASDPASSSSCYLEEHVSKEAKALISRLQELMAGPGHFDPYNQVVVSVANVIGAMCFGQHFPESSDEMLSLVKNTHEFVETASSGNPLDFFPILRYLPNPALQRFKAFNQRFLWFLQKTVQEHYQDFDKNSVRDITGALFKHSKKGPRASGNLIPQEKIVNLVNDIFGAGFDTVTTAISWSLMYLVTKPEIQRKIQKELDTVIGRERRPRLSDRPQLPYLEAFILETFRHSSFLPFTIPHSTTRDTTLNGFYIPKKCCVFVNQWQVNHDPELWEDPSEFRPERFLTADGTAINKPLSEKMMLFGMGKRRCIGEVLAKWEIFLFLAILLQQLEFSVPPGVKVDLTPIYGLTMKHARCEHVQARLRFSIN
# [8] = Dissociation constant, pKa of the compound; format: physicochemical
# [9] = Oral bioavailability in rat; format: ADME, organism-based; details: in vivo
# Homo sapiens [10] = assay: Potentiation of […]-induced tumor regression against human HBCx-10 cells xenografted in immunocompromised mouse at 5 mg/kg, po qd administered on days 1 to 3 of weekly cycle; format: functional, organism-based
# [11] = Volume of distribution at steady state in dog; format: ADME, organism-based, Canis lupus familiaris; details: in vivo, read-out: Vdss
# [12] = Tmax in patient with solid tumor at 120 mg, po bid by LC-MS/MS analysis; format: ADME, organism-based; details: human, in vivo
# [13] = AUC (0 to 12 hrs) in patient with solid tumor at 60 mg, po bid by LC-MS/MS analysis; format: ADME, organism-based; design: dose 60 mg, time < 12 hr, route oral; details: human, in vivo
# [14] = molecular target: Phosphatidylinositol 4,5-bisphosphate 3-kinase catalytic subunit gamma isoform (Homo sapiens, UniProt P48736); assay: Inhibition of human PI3Kgamma (S144 to A1102 residues) expressed in mammalian expression system
# Phosphatidylinositol 4,5-bisphosphate 3-kinase catalytic subunit gamma isoform, sequence (P48736 whole entry, the tested form may be a part, canonical isoform): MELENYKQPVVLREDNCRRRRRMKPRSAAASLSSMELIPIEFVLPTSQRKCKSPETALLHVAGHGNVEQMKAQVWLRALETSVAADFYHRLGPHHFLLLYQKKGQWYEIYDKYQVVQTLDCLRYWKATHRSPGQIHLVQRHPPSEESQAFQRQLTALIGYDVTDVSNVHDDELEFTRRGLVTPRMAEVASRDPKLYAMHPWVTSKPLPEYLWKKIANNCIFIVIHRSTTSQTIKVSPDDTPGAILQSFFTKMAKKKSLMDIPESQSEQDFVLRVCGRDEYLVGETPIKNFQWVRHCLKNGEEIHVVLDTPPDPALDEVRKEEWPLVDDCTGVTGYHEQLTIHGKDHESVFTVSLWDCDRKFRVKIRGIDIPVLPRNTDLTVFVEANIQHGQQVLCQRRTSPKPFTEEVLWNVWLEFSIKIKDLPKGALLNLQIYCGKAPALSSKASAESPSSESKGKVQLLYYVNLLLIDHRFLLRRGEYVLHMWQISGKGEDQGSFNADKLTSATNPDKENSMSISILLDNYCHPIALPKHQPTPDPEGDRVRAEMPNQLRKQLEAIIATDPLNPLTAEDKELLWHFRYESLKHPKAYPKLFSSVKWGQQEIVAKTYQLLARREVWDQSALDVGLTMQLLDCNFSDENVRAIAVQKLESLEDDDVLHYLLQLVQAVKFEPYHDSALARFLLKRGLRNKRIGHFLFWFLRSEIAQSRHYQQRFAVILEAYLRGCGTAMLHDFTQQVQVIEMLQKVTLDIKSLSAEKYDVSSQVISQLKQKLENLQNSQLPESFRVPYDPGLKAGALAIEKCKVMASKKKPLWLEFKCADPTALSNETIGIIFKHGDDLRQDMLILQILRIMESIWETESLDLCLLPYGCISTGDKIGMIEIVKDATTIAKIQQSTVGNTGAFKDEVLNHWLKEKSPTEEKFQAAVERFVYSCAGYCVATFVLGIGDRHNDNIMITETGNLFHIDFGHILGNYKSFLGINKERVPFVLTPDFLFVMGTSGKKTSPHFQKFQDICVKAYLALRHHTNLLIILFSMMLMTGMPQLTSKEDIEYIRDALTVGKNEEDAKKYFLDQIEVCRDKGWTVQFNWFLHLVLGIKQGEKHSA
# Cytochrome P450 3A4 = Cytochrome P450 3A4 (Homo sapiens, UniProt P08684); assay: Inhibition of human CYP3A4; format: ADME
# Cytochrome P450 3A4, sequence (P08684 whole entry): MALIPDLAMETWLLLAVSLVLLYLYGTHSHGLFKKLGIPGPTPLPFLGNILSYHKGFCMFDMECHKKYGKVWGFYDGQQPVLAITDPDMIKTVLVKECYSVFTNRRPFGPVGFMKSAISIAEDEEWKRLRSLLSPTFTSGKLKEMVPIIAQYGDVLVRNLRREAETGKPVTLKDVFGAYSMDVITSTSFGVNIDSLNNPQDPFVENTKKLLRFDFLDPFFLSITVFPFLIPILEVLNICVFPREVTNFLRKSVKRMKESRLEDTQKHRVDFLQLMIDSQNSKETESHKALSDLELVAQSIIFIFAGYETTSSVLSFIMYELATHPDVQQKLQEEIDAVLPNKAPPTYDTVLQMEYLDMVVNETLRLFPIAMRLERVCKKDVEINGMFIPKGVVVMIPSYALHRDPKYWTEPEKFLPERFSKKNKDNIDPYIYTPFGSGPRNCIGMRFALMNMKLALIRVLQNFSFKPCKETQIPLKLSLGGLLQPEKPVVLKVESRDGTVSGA
# [15] = AUC (0 to 12 hrs) in patient with solid tumor at 120 mg, po bid by LC-MS/MS analysis; format: ADME, organism-based; design: dose 120 mg, time < 12 hr, route oral; details: human, in vivo
# [16] = Cmax in patient with solid tumor at 30 mg, po bid by LC-MS/MS analysis; format: ADME, organism-based; design: dose 30 mg, route oral; details: human, in vivo
# [17] = Solubility of the compound in FaSSIF; format: physicochemical
# [18] = Tmax in patient with solid tumor at 30 mg, po bid by LC-MS/MS analysis; format: ADME, organism-based; details: human, in vivo
# [19] = molecular target: Serine/threonine-protein kinase mTOR (Homo sapiens) (UniProt P42345); assay: Inhibition of human m-TOR (L1382 to W2549 residues) expressed in mammalian expression system at 1 uM relative to control
# Mus musculus [20] = assay: Toxicity in immunocompromised mouse xenografted with human SW620 cells at 20 mg/kg, po qd administered on days 2 to 4 of weekly cycle in presence of irinotecan; format: organism-based; details: in vivo
# [21] = molecular target: T2, Phosphatidylinositol 4,5-bisphosphate 3-kinase catalytic subunit delta isoform (Homo sapiens, UniProt O00329); assay: Inhibition of human PI3Kdelta (R108 to Q1044 residues) expressed in mammalian expression system
# T2 sequence (O00329 whole entry): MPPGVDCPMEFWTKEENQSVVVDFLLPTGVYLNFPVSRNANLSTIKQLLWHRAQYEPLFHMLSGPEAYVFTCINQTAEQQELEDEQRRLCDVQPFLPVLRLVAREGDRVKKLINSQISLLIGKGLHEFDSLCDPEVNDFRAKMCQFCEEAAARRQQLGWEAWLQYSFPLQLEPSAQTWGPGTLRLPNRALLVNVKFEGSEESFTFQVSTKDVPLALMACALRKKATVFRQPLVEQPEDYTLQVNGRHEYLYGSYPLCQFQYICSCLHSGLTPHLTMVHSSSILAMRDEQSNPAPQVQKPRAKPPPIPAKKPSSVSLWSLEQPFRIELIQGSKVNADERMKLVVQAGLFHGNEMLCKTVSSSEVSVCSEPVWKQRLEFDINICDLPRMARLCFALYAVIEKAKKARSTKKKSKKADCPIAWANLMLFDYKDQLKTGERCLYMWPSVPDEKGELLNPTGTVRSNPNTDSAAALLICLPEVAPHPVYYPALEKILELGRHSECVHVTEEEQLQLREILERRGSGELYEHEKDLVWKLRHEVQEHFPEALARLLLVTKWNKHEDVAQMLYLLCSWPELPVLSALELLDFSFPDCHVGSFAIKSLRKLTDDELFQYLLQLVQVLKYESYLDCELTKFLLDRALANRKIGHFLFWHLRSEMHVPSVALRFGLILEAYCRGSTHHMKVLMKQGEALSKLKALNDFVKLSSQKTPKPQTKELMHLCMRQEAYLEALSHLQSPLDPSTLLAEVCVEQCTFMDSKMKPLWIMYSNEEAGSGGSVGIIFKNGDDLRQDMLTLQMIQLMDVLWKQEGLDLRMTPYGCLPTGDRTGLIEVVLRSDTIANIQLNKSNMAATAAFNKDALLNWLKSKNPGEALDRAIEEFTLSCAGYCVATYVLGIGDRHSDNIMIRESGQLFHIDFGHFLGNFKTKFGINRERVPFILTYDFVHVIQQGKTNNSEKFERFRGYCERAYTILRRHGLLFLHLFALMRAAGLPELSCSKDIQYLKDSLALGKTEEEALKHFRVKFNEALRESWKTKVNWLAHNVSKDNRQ
# [22] = molecular target: Phosphatidylinositol 4,5-bisphosphate 3-kinase catalytic subunit beta isoform (Homo sapiens, UniProt P42338); assay: Inhibition of human PI3Kbeta (P118 to S1070 residues) expressed in mammalian expression system
# Phosphatidylinositol 4,5-bisphosphate 3-kinase catalytic subunit beta isoform, sequence (P42338 whole entry, the tested form may be a part, canonical isoform): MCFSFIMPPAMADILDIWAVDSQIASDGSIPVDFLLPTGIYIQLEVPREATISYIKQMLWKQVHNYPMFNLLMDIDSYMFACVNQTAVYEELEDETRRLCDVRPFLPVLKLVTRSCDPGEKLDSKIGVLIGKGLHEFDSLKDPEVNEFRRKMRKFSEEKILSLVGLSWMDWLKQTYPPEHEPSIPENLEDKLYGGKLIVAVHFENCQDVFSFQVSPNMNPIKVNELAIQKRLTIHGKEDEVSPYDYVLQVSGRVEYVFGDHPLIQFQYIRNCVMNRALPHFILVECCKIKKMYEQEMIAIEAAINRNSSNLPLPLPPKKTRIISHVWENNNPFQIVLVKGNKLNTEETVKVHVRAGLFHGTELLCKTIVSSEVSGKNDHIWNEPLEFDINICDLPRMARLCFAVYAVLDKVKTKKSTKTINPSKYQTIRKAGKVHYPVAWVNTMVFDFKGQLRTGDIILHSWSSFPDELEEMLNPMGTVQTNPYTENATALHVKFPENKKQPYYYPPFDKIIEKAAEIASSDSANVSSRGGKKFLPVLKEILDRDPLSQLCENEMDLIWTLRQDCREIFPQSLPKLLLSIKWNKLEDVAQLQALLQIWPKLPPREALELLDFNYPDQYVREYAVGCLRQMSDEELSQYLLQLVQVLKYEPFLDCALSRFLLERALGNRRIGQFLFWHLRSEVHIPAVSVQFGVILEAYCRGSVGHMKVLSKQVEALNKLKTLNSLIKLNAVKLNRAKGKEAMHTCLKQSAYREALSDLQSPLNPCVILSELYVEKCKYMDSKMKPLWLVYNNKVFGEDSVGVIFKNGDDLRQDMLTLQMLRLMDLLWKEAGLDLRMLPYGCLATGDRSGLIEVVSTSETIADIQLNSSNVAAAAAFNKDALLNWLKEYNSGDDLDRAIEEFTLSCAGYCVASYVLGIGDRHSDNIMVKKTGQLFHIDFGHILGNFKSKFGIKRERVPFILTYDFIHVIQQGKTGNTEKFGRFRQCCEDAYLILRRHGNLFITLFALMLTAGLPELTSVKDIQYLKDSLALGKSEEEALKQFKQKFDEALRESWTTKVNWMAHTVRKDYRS
# [23] = Cmax in patient with solid tumor at 60 mg, po bid by LC-MS/MS analysis; format: ADME, organism-based; design: dose 60 mg, route oral; details: human, in vivo
# Mus musculus [24] = assay: Toxicity in immunocompromised mouse xenografted with human HBCx-10 cells at 5 mg/kg, po qd administered on days 1 to 3 of weekly cycle in presence of olaparib; format: organism-based; details: in vivo
# SW-620 [25] = assay: Antitumor activity against human SW620 cells xenografted in immunocompromised mouse assessed as tumor regression at 20 mg/kg, po qd administered on days 2 to 4 of weekly cycle; format: functional, organism-based
# Cytochrome P450 2D6 = Cytochrome P450 2D6 (Homo sapiens, UniProt P10635); assay: Inhibition of human CYP2D6; format: ADME
# Cytochrome P450 2D6, sequence (P10635 whole entry): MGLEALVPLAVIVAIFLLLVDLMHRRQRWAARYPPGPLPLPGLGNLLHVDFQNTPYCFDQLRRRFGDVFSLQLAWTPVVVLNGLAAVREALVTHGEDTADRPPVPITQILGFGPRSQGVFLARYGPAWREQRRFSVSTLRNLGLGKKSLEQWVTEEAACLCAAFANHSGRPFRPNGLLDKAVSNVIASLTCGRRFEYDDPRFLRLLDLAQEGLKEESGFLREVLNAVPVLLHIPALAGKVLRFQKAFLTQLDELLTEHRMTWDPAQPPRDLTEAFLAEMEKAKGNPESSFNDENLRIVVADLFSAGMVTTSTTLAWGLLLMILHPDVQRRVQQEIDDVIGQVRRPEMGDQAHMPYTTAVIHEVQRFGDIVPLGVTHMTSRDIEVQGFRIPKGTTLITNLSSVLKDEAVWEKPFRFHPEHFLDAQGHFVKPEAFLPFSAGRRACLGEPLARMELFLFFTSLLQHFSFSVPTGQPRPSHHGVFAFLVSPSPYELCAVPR
# Cytochrome P450 2C9 = Cytochrome P450 2C9 (Homo sapiens, UniProt P11712); assay: Inhibition of human CYP2C9; format: ADME
# Cytochrome P450 2C9, sequence (P11712 whole entry): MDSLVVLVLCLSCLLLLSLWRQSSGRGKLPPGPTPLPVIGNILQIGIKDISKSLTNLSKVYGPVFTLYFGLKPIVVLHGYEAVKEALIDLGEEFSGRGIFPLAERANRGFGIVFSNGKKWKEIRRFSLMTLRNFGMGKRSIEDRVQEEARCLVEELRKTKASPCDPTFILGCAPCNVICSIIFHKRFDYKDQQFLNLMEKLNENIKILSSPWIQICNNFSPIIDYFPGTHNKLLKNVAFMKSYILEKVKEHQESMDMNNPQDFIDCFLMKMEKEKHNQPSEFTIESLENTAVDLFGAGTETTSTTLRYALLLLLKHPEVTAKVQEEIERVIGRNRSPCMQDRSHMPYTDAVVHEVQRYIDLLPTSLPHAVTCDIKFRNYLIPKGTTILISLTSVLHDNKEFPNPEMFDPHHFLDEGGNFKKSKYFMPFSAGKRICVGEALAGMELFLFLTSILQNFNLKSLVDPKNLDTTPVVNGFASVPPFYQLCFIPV
# [26] = Tmax in patient with solid tumor at 60 mg, po bid by LC-MS/MS analysis; format: ADME, organism-based; details: human, in vivo
# [27] = Buffer/octanol partition coefficient, log D of the compound at pH 7.4 by shake flask method; format: physicochemical
# [28] = Apparent permeability across apical to basolateral side in MDCK cells overexpressing MDR1; format: ADME, cell-based, Canis lupus familiaris; details: dog
# [29] = Solubility of the compound in simulated gastric fluid; format: physicochemical
# [30] = Volume of distribution at steady state in rat; format: ADME, organism-based; details: in vivo, read-out: Vdss
# [31] = Fraction unbound in rat plasma
# [32] = Thermodynamic solubility of the compound in 0.1M aqueous phosphate buffer at pH 7.4 after 24 hrs by LC-UV analysis; format: physicochemical; details: read-out: Therm_solubility
# [33] = Oral bioavailability in dog; format: ADME, organism-based, Canis lupus familiaris; details: in vivo
# [34] = Cmax in patient with solid tumor at 120 mg, po bid by LC-MS/MS analysis; format: ADME, organism-based; design: dose 120 mg, route oral; details: human, in vivo
# Cytochrome P450 2C19 = Cytochrome P450 2C19 (Homo sapiens, UniProt P33261); assay: Inhibition of human CYP2C19; format: ADME
# Cytochrome P450 2C19, sequence (P33261 whole entry): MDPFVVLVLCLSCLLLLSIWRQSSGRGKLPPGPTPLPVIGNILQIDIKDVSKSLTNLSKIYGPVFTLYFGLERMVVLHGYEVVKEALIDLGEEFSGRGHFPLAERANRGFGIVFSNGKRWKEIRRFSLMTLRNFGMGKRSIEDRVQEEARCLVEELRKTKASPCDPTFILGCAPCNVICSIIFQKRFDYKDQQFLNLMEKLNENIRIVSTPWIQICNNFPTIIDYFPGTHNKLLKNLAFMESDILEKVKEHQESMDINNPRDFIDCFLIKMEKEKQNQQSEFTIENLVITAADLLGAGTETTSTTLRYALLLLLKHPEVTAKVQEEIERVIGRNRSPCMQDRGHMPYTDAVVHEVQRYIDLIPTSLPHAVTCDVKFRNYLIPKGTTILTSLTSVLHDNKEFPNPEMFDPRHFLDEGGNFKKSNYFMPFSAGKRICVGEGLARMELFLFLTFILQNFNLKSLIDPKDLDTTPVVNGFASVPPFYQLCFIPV
# [35] = AUC (0 to 12 hrs) in patient with solid tumor at 30 mg, po bid by LC-MS/MS analysis; format: ADME, organism-based; design: time < 12 hr, dose 30 mg, route oral; details: human, in vivo
# [36] = AUC (0 to 12 hrs) in patient with solid tumor at 15 mg, po bid by LC-MS/MS analysis; format: ADME, organism-based; design: time < 12 hr, dose 15 mg, route oral; details: human, in vivo
# SW-620 [37] = assay: Potentiation of irinotecan-induced tumor regression against human SW620 cells xenografted in immunocompromised mouse at 20 mg/kg, po qd administered on days 2 to 4 of weekly cycle; format: functional, organism-based
# [38] = Cmax in patient with solid tumor at 15 mg, po bid by LC-MS/MS analysis; format: ADME, organism-based; design: dose 15 mg, route oral; details: human, in vivo
# [39] = Tmax in patient with solid tumor at 15 mg, po bid by LC-MS/MS analysis; format: ADME, organism-based; details: human, in vivo
# [40] = Apparent permeability across apical to basolateral side in human Caco2 cells at pH 6.5; format: ADME, cell-based; details: Caco-2, pH 6.5
structure (smiles),measurement,setting,value
CN1CCN(CCC(=O)Nc2ccc3c(c2)Sc2cccc(-c4cc(=O)cc(N5CCOCC5)o4)c2S3)CC1,IC50,[1],3 nM
same,Ratio IC50,Homo sapiens [2],> 300
same,Ratio IC50,Homo sapiens [3],> 300
same,Ratio IC50,Homo sapiens [4],> 300
same,Ratio IC50,Homo sapiens [5],> 300
CN(C)CCCOc1ccc(-c2ccc3ncc4c(c3c2)n(C2CCOCC2)c(=O)n4C)cn1,solubility,[6],> 5000 µg/mL
same,Papp A→B,[7],5.6 ×10⁻⁶ cm/s
same,IC50,Cytochrome P450 1A2,> 30000 nM
same,pKa,[8],9.6
same,bioavailability,[9],57%
same,Activity,Homo sapiens [10],Active
same,Vd,[11],17.6 L/kg
same,Tmax,[12],2.5 h
same,AUC at 12 h,[13],206 ng·h/mL
same,IC50,[14],1100 nM
same,IC50,Cytochrome P450 3A4,> 30000 nM
same,AUC at 12 h,[15],330 ng·h/mL
same,Cmax,[16],17.5 ng/mL
same,solubility,[17],> 5000 µg/mL
same,Tmax,[18],2 h
same,inhibition,[19],93%
same,Activity,Mus musculus [20],Non-Toxic
same,IC50,[21],270 nM
same,IC50,[22],1800 nM
same,Cmax,[23],39.6 ng/mL
same,Activity,Mus musculus [24],Non-Toxic
same,Activity,SW-620 [25],inactive
same,IC50,Cytochrome P450 2D6,> 30000 nM
same,IC50,Cytochrome P450 2C9,> 30000 nM
same,Tmax,[26],2.5 h
same,logD,[27],1.5
same,Papp A→B,[28],6.6 ×10⁻⁶ cm/s
same,solubility,[29],> 5000 µg/mL
same,Vd,[30],4.3 L/kg
same,fraction unbound,[31],0.11
same,solubility thermodynamic at 24 h,[32],> 800 µM
same,bioavailability,[33],54%
same,Cmax,[34],58.8 ng/mL
same,IC50,Cytochrome P450 2C19,> 30000 nM
same,AUC at 12 h,[35],105 ng·h/mL
same,AUC at 12 h,[36],40.4 ng·h/mL
same,Activity,SW-620 [37],Active
same,Cmax,[38],6.67 ng/mL
same,Tmax,[39],2 h
same,Papp A→B,[40],19 ×10⁻⁶ cm/s

# From ChEMBL document CHEMBL4152224, “The Identification of Potent, Selective, and Orally Available Inhibitors of Ataxia Telangiectasia Mutated (ATM) Kinase: The Discovery of AZD0156 (8-{6-[3-(Dimethylamino)propoxy]pyridin-3-yl}-3-methyl-1-(tetrahydro-2 H-pyran-4-yl)-1,3-dihydro-2 H-imidazo[4,5- c]quinolin-2-one)” (J Med Chem, 2018)
